Reference: patent US12036319B2, “Polyvalent sting activating compositions and uses thereof” (The Board of Regents of the University of Texas System, priority 2020, dated 2024)

Columns and labels:
[1] = tested on: B16-F10 melanoma tumor model; assay: Interferon-stimulated gene expression in B16-F10 tumor-bearing mice; assay type: in vivo, mouse
Description: RT-qPCR. […] Results were corrected by β-actin or GAPDH.
Mice were subcutaneously inoculated with B16F10 melanoma cells (1.0×10^5) or TC-1 cells (1.0×10^5) into the right flank. […] Mice were euthanized one-day post-injection, and tumors and draining lymph nodes were collected. Total RNAs were extracted by TRIzol (Invitrogen), and the expressions of interferon-stimulated genes (ifn-β, cxcl10, tnf-α, and irf7) were measured via RT-qPCR.

[2] = tested on: STING R232H variant in THP1 cells; assay: IFN-β-Luc expression in THP1 cells harboring STING R232H; assay type: cell-based, human
Description: (§1) WT or R232H THP-1 reporter cells were purchased from Invitrogen.

STING = assay: Time course of STING puncta, signaling and degradation in GFP-STING MEF and THP1 cells; assay type: cell-based
Description: (§2) Microscopy. […] In STING degradation assay, LysoTracker Red DND-99 (Thermo Scientific) was used to stain lysosomes in live cells. […] Samples were mounted in prolong gold antifade with Dapi stain (Thermo Scientific) and imaged using a Zeiss 700 confocal laser scanning microscope with a 63× oil objective. ImageJ was used to quantify co-localization by Pearson's correlation coefficient. Data are representative of at least twenty cells.
Western blot analysis. […] Briefly, cells were lysed in SDS sample buffer (with protease and phosphatase inhibitor cocktail) and heated for denaturation. […] Electro transfer was performed using 100 V for 60 min on ice. After transfer, the membrane was blocked either in 5% non-fat milk or BSA (phosphorylated protein) for 1 h at room temperature, and incubated with primary antibody overnight at 4° C. HRP-linked secondary antibody (Bio-Rad) was used for 1 h at room temperature before detection on X-ray film (GE Healthcare). Membrane was stripped in stripping buffer for 30 min and reused for […] (Sigma Aldrich) detection.
(§3) RT-qPCR. Total RNAs were extracted from cells or human tissues by using RNeasy mini kit (QIAGEN). RNA quantity and quality were confirmed using NanoDrop (DeNovix DS-11). Genomic DNA was removed and cDNA was synthesized using an iScript™ gDNA clear cDNA synthesis kit (Bio-Rad). Bio-Rad SoAdvanced™ universal SYBR green supermix and CFX connect real-time system were used for PCR analysis. Results were corrected by β-actin or GAPDH. DNA primers are listed as follows: • Mouse ifn-β: […]

[3] = tested on: mutant STING-GFP in HEK293T cells; assay: Downstream STING activation in HEK293T cells transfected with mutant STING plasmids; assay type: cell-based, human
Description: as §1, §2, §3

TC-1 tumors = assay: Tumor therapy, TC-1 tumor model; assay type: in vivo, mouse; details: TC-1, intratumoral, four injections, versus 5% glucose
Description: Tumor therapy experiments. Mice were subcutaneously inoculated with MC38 cells (1.0×10^6) or TC-1 cells (1.0×10^5) into the right flank. Tumor size was measured every other day via a digital caliper, and tumor volume was calculated as 0.5×length×width^2. […] Mice were injected 3× in MC38 model and 4× in TC-1 model with treatments spaced 4 d apart. Mice were euthanized at a tumor burden endpoint of 2,000 mm^3.

[4] = tested on: resected human tissues (squamous cell carcinoma from the base of tongue, cervical tumor tissues, sentinel lymph node); assay: STING activation in freshly resected human tissues; details: ex vivo injection, 24 h at 37° C.; cGAMP 80 ng, PC7A 50 μg
Description: as §3

Nc1nc2c(ncn2[C@@H]2O[C@@H]3COP(=O)(O)OC4C(O)[C@H](n5cnc6c(N)ncnc65)O[C@@H]4COP(=O)(O)OC2C3O)c(=O)[nH]1 (stereo partly drawn) [cGAMP, cyclic guanosine monophosphate-adenosine monophosphate]
STING activation in draining lymph nodes ([1]; intratumoral injection, cGAMP high dose 2.5 μg): minimal STING activation
interferon-stimulated gene expression (ifn-β, cxcl10, tnf-α, irf7) in tumor ([1]; single intratumoral injection, 24 hours, PC7A 50 μg, cGAMP low dose 0.5 μg): failed to induce interferon-stimulated gene expressions
IFN-β-Luc expression [2]: abrogated
time of peak immune response after stimulation (STING): around 6 h
time to STING degradation (STING; STING-GFP MEFs): ≤ 12 h
p-TBK1/p-IRF3 production and proinflammatory cytokine expression (STING; in the presence of brefeldin A (BFA, 10 μM)): fail to trigger p-TBK1/p-IRF3 production and proinflammatory cytokine expression
condensate structures, TBK1 phosphorylation and ifn-β/cxcl10 expression [3]: did not impact cGAMP-mediated STING activation
extension of median survival (TC-1 tumors): 4 days
ifn-β and cxcl10 mRNA expression over control [4]: marginal effect
